Data from patent publication US5288872A, “Compounds for treatment of neurodegenerative diseases” (priority 1992, dated 1994).

Key:
[1] = system: synaptosomes from the striatal area of rat brain; experiment: Dopamine release from striatal synaptosomes of rat brain; type: cell-based, rat (Sprague-Dawley); details: read-out: Dopamine Release (percent release relative to S(-)nicotine)
Experimental: Dopamine release was measured by preparing synaptosomes from the striatal area of rat brain generally obtained from Sprague-Dawley rats according to the procedures set forth by Nagy, et al., J. Neurochem., Vol. 43, pp. 1114-1123 (1984). Striata from 4 rats were homogenized in 2 ml of 0.32M sucrose buffered with 5 mM HEPES (pH 7.5), using a glass-teflon tissue grinder. The homogenate was diluted to 5 ml with additional homogenization solution and centrifuged at 1000×g for 10 min. This procedure was repeated on the new pellet and the resulting supernatant was centrifuged at 12,000×g for 20 min. […] Using this method, 30 to 90 percent of the dopamine was taken up into the synaptosomes, as determined by scintillation counting following filtration through glass fiber filters soaked with 0.5 percent polyethyleneimine. […] After the addition of a 0.2 ml of a 20 μM solution of ligand, the perfusate was collected into scintillation vials at 1 min. intervals and the dopamine released was quantified by scintillation counting. Peaks of radioactivity released above background were summed and the average basal release during that time was subtracted from the total. Release was expressed as a percentage of release obtained with an equal concentration of S(-)nicotine.

[2] = molecular target: nicotinic receptors; experiment: Inhibition of L-[^3 H] nicotine binding to mouse brain membrane preparations; set-up: species or system mouse (DBA strain); details: mouse brain membranes, 2 hr. incubation at 4° C., pH 7.5, racemic mixture of ligand
Experimental: Mice (DBA strain) were maintained on a 12 hour light/dark cycle and were allowed free access to water and food supplied by Wayne Lab Blox, Madison, Wis. Animals used in the present studies were 60 to 90 days of age and weighed 20 to 25 g. Brain membrane preparations were obtained from pooled brain tissue of both males and females.
Mice were killed by cervical dislocation. Brains were removed and placed on an ice-cold platform. […] Protein was determined by the method of Lowry, et al., J. Biol. Chem., Vol. 193, pp. 265-275 (1951), using bovine serum albumin as the standard.
The binding of L-[^3 H] nicotine was measured using a modification of the method of Romano, et al., Science, Vol. 210, pp. 647-650 (1980) as described previously by Marks, et al., Mol. Pharmacol., Vol. 30, pp. 427-436 (1986). The binding of L-[^3 H] nicotine was measured using a 2 hr. incubation at 4° C. […] Nonspecific binding was determined by inclusion of 10 μM nonradioactive nicotine in the incubations. The inhibition of L-[^3 H] nicotine binding by test compounds was determined by including one of eight different concentrations of the test compound in the incubation. […] Inhibition constants (Ki values) were calculated from the IC50 values using the method of Cheng, et al., Biochem. Pharmacol., Vol. 22, pp. 3099-3108 (1973).

## CC(=O)C1=CCC2CCC1N2C (stereo not shown) [Ferruginine, ferruginine]
[1]
  Emax: 15%
[2]
  Ki: 3100 ± 500 nM

## CC(=O)C1=CCC2CCC1N2 (stereo not shown) [Norferruginine, norferruginine]
[1]
  Emax: 25%
[2]
  Ki: 1100 ± 300 nM
